Reference: PubChem BioAssay AID1963420 (Molecular Pharmacology Branch, DTP, NCI, 2024)
Values joined by “and” are separate entries in the source; they are usually repeats but may differ in a detail not shown here. Identical values can stand only once. Values belong to the molecule of their own block, whether it stands above or below them.

System: 494315-158-R-J1-PDC complex spheroid growth, percent test/control
Test: Anticancer human tumor 494315-158-R-J1-PDC patient-derived soft tissue sarcoma cell line growth inhibition [Asc]
Settings: for viability, T/C: stronger effect = lower value
Procedure, shortened: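 Complex spheroids combining tumor cells with HUVEC endothelial cells and human MSCs, at 37 degrees C, 5% CO2; agents tested alone or combined, half-log dilutions from at or near clinical Cmax, or 10 microM if Cmax unknown.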

[1] = curve of first compound, second compound 0.01 µM
[2] = curve of first compound, second compound 0.0316 µM
[3] = curve of first compound, second compound 0.1 µM
[4] = curve of first compound, second compound 0.316 µM
[5] = curve of first compound, second compound 1 µM
[6] = second compound 0.01 µM, first compound 0.00949 µM
[7] = second compound 0.01 µM, first compound 0.03 µM
[8] = second compound 0.01 µM, first compound 0.0949 µM
[9] = second compound 0.01 µM, first compound 0.3 µM
[10] = second compound 0.01 µM, first compound 0.949 µM
[11] = second compound 0.01 µM, first compound 3 µM
[12] = second compound 0.0316 µM, first compound 0.00949 µM
[13] = second compound 0.0316 µM, first compound 0.03 µM
[14] = second compound 0.0316 µM, first compound 0.0949 µM
[15] = second compound 0.0316 µM, first compound 0.3 µM
[16] = second compound 0.0316 µM, first compound 0.949 µM
[17] = second compound 0.0316 µM, first compound 3 µM
[18] = second compound 0.1 µM, first compound 0.00949 µM
[19] = second compound 0.1 µM, first compound 0.03 µM
[20] = second compound 0.1 µM, first compound 0.0949 µM
[21] = second compound 0.1 µM, first compound 0.3 µM
[22] = second compound 0.1 µM, first compound 0.949 µM
[23] = second compound 0.1 µM, first compound 3 µM
[24] = second compound 0.316 µM, first compound 0.00949 µM
[25] = second compound 0.316 µM, first compound 0.03 µM
[26] = second compound 0.316 µM, first compound 0.0949 µM
[27] = second compound 0.316 µM, first compound 0.3 µM
[28] = second compound 0.316 µM, first compound 0.949 µM
[29] = second compound 0.316 µM, first compound 3 µM
[30] = second compound 1 µM, first compound 0.00949 µM
[31] = second compound 1 µM, first compound 0.03 µM
[32] = second compound 1 µM, first compound 0.0949 µM
[33] = second compound 1 µM, first compound 0.3 µM
[34] = second compound 1 µM, first compound 0.949 µM
[35] = second compound 1 µM, first compound 3 µM
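Also: compound exposure lasted seven days after spheroids formed for three days.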

IC50 (curve of compound): 0.048 µM and 0.046 µM and 0.0441 µM
Compound: COc1c(OCCCN2CCOCC2)ccc2c3n(c(=NC(=O)c4cnc(N)nc4)nc12)CCN3
viability, T/C (compound 0.00316 µM): 87.8% and 87% and 82.3%
viability, T/C (compound 0.01 µM): 79.6% and 80.4% and 82.8%
viability, T/C (compound 0.0316 µM): 56.8% and 58.9% and 54.3%
viability, T/C (compound 0.1 µM): 37% and 32% and 34%
viability, T/C (compound 0.316 µM): 20.7% and 21.1% and 18%
viability, T/C (compound 1 µM): 16.9% and 20.5% and 16.8%

IC50 (curve of compound): > 10 µM
Compound: C#Cc1c(F)ccc2cc(O)cc(-c3ncc4c(N5CC6CCC(C5)N6)nc(OCC56CCCN5CC(F)C6)nc4c3F)c12 (stereo unspecified)
viability, T/C (compound 0.0316 µM): 107% and 98.9% and 87.7%
viability, T/C (compound 0.1 µM): 109% and 102% and 108%
viability, T/C (compound 0.316 µM): 107% and 98.4% and 99.9%
viability, T/C (compound 1 µM): 107% and 104% and 95.3%
viability, T/C (compound 3.16 µM): 120% and 97.1% and 100%
viability, T/C (compound 10 µM): 103% and 86.4% and 91.4%

IC50 (curve of compound): 0.0942 µM and 0.0659 µM and 0.0944 µM
Compound: NC(=O)C(=Cn1cnc(-c2cc(C(F)(F)F)cc(C(F)(F)F)c2)n1)c1cncnc1
viability, T/C (compound 0.000949 µM): 88.9% and 102% and 89.1%
viability, T/C (compound 0.003 µM): 93.4% and 99.6% and 101%
viability, T/C (compound 0.00949 µM): 79.4% and 90.6% and 81.3%
viability, T/C (compound 0.03 µM): 73.1% and 71.5% and 74%
viability, T/C (compound 0.0949 µM): 49.7% and 40.1% and 50.4%
viability, T/C (compound 0.3 µM): 13.5% and 13.7% and 12.4%

IC50 (curve of first compound, second compound 0.03 µM): > 3 µM
IC50 (curve of first compound, second compound 0.0949 µM): 1.43 µM
IC50 (curve of first compound, second compound 0.3 µM): 0.915 µM
IC50 (curve of first compound, second compound 0.949 µM): 0.601 µM
IC50 (curve of first compound, second compound 3 µM): 0.718 µM
Compound: Cc1nc(N2CCC3(CC2)COC(C)C3N)c(CO)nc1Sc1ccnc(N)c1Cl (stereo unspecified) + CCN1C(C(=O)NC23CCC(C(=O)O)(CC2)CC3)C(c2cccc(Cl)c2F)C2(C(=O)Nc3cc(Cl)ccc32)C12CCCCC2
viability, T/C (second compound 0.03 µM, first compound 0.00949 µM): 102%
viability, T/C (second compound 0.03 µM, first compound 0.03 µM): 90.3%
viability, T/C (second compound 0.03 µM, first compound 0.0949 µM): 70.8%
viability, T/C (second compound 0.03 µM, first compound 0.3 µM): 64.2%
viability, T/C (second compound 0.03 µM, first compound 0.949 µM): 51.5%
viability, T/C (second compound 0.03 µM, first compound 3 µM): 58.4%
viability, T/C (second compound 0.0949 µM, first compound 0.00949 µM): 83.8%
viability, T/C (second compound 0.0949 µM, first compound 0.03 µM): 83.6%
viability, T/C (second compound 0.0949 µM, first compound 0.0949 µM): 72%
viability, T/C (second compound 0.0949 µM, first compound 0.3 µM): 69%
viability, T/C (second compound 0.0949 µM, first compound 0.949 µM): 59.5%
viability, T/C (second compound 0.0949 µM, first compound 3 µM): 36.4%
viability, T/C (second compound 0.3 µM, first compound 0.00949 µM): 79.6%
viability, T/C (second compound 0.3 µM, first compound 0.03 µM): 89.9%
viability, T/C (second compound 0.3 µM, first compound 0.0949 µM): 81.7%
viability, T/C (second compound 0.3 µM, first compound 0.3 µM): 68.3%
viability, T/C (second compound 0.3 µM, first compound 0.949 µM): 50.4%
viability, T/C (second compound 0.3 µM, first compound 3 µM): 37.1%
viability, T/C (second compound 0.949 µM, first compound 0.00949 µM): 89.3%
viability, T/C (second compound 0.949 µM, first compound 0.03 µM): 87.2%
viability, T/C (second compound 0.949 µM, first compound 0.0949 µM): 76.9%
viability, T/C (second compound 0.949 µM, first compound 0.3 µM): 63.4%
viability, T/C (second compound 0.949 µM, first compound 0.949 µM): 40%
viability, T/C (second compound 0.949 µM, first compound 3 µM): 37.6%
viability, T/C (second compound 3 µM, first compound 0.00949 µM): 80.9%
viability, T/C (second compound 3 µM, first compound 0.03 µM): 86%
viability, T/C (second compound 3 µM, first compound 0.0949 µM): 78.2%
viability, T/C (second compound 3 µM, first compound 0.3 µM): 62.2%
viability, T/C (second compound 3 µM, first compound 0.949 µM): 47.1%
viability, T/C (second compound 3 µM, first compound 3 µM): 32.5%

IC50 [1]: > 3 µM
IC50 [2]: > 3 µM
IC50 [3]: 0.539 µM
IC50 [4]: 0.0446 µM
IC50 [5]: < 0.00949 µM
Compound: CCN1C(C(=O)NC23CCC(C(=O)O)(CC2)CC3)C(c2cccc(Cl)c2F)C2(C(=O)Nc3cc(Cl)ccc32)C12CCCCC2 (stereo unspecified) + CNC(C)C(=O)NC1CN(S(=O)(=O)c2cccc(S(=O)(=O)N3CCC4CCC(C(=O)NC(c5ccccc5)c5ccccc5)N4C(=O)C(NC(=O)C(C)NC)C3)c2)CCC2CCC(C(=O)NC(c3ccccc3)c3ccccc3)N2C1=O
viability, T/C [6]: 66.2%
viability, T/C [7]: 77.9%
viability, T/C [8]: 66.8%
viability, T/C [9]: 73.7%
viability, T/C [10]: 67.5%
viability, T/C [11]: 57.8%
viability, T/C [12]: 57.3%
viability, T/C [13]: 62.8%
viability, T/C [14]: 61.5%
viability, T/C [15]: 71%
viability, T/C [16]: 60.6%
viability, T/C [17]: 51.4%
viability, T/C [18]: 51.4%
viability, T/C [19]: 53.4%
viability, T/C [20]: 56.5%
viability, T/C [21]: 52%
viability, T/C [22]: 47.1%
viability, T/C [23]: 39.3%
viability, T/C [24]: 53.9%
viability, T/C [25]: 55.3%
viability, T/C [26]: 49.8%
viability, T/C [27]: 39.5%
viability, T/C [28]: 41%
viability, T/C [29]: 45.4%
viability, T/C [30]: 39.6%
viability, T/C [31]: 45.6%
viability, T/C [32]: 44.5%
viability, T/C [33]: 38.7%
viability, T/C [34]: 35.7%
viability, T/C [35]: 33%

IC50 [1]: 0.0505 µM
IC50 [2]: 0.012 µM
IC50 [3]: 0.00995 µM
IC50 [4]: 0.00127 µM
IC50 [5]: < 0.000949 µM
Compound: NC(=O)C(=Cn1cnc(-c2cc(C(F)(F)F)cc(C(F)(F)F)c2)n1)c1cncnc1 + CNC(C)C(=O)NC1CN(S(=O)(=O)c2cccc(S(=O)(=O)N3CCC4CCC(C(=O)NC(c5ccccc5)c5ccccc5)N4C(=O)C(NC(=O)C(C)NC)C3)c2)CCC2CCC(C(=O)NC(c3ccccc3)c3ccccc3)N2C1=O
viability, T/C (second compound 0.01 µM, first compound 0.000949 µM): 73.4%
viability, T/C (second compound 0.01 µM, first compound 0.003 µM): 70.6%
viability, T/C [6]: 59.4%
viability, T/C [7]: 54.2%
viability, T/C [8]: 46.8%
viability, T/C [9]: 7.92%
viability, T/C (second compound 0.0316 µM, first compound 0.000949 µM): 58.4%
viability, T/C (second compound 0.0316 µM, first compound 0.003 µM): 58.8%
viability, T/C [12]: 51.9%
viability, T/C [13]: 41.4%
viability, T/C [14]: 27.8%
viability, T/C [15]: 7.91%
viability, T/C (second compound 0.1 µM, first compound 0.000949 µM): 51%
viability, T/C (second compound 0.1 µM, first compound 0.003 µM): 64.5%
viability, T/C [18]: 46.6%
viability, T/C [19]: 39.5%
viability, T/C [20]: 23.5%
viability, T/C [21]: 5.3%
viability, T/C (second compound 0.316 µM, first compound 0.000949 µM): 49.3%
viability, T/C (second compound 0.316 µM, first compound 0.003 µM): 50.1%
viability, T/C [24]: 43.8%
viability, T/C [25]: 33.6%
viability, T/C [26]: 24.4%
viability, T/C [27]: 5.39%
viability, T/C (second compound 1 µM, first compound 0.000949 µM): 35.7%
viability, T/C (second compound 1 µM, first compound 0.003 µM): 36.7%
viability, T/C [30]: 40.4%
viability, T/C [31]: 35.8%
viability, T/C [32]: 21.8%
viability, T/C [33]: 6.84%

IC50 [1]: > 3 µM
IC50 [2]: > 3 µM
IC50 [3]: 0.941 µM
IC50 [4]: < 0.00949 µM
IC50 [5]: < 0.00949 µM
Compound: Cc1nc(N2CCC3(CC2)COC(C)C3N)c(CO)nc1Sc1ccnc(N)c1Cl (stereo unspecified) + CNC(C)C(=O)NC1CN(S(=O)(=O)c2cccc(S(=O)(=O)N3CCC4CCC(C(=O)NC(c5ccccc5)c5ccccc5)N4C(=O)C(NC(=O)C(C)NC)C3)c2)CCC2CCC(C(=O)NC(c3ccccc3)c3ccccc3)N2C1=O
viability, T/C [6]: 72.2%
viability, T/C [7]: 59.6%
viability, T/C [8]: 64.1%
viability, T/C [9]: 60.8%
viability, T/C [10]: 62.7%
viability, T/C [11]: 52.1%
viability, T/C [12]: 60.7%
viability, T/C [13]: 69.7%
viability, T/C [14]: 64.3%
viability, T/C [15]: 55.6%
viability, T/C [16]: 60.8%
viability, T/C [17]: 51%
viability, T/C [18]: 59.7%
viability, T/C [19]: 55.6%
viability, T/C [20]: 50.6%
viability, T/C [21]: 49.1%
viability, T/C [22]: 59.1%
viability, T/C [23]: 43.7%
viability, T/C [24]: 48.3%
viability, T/C [25]: 48.6%
viability, T/C [26]: 47.2%
viability, T/C [27]: 37.1%
viability, T/C [28]: 42.8%
viability, T/C [29]: 49.5%
viability, T/C [30]: 38.7%
viability, T/C [31]: 44.2%
viability, T/C [32]: 44.3%
viability, T/C [33]: 36.8%
viability, T/C [34]: 40%
viability, T/C [35]: 39.2%
